# From patent US20090186835A1, “TREATMENT AND PROPHYLAXIS OF CANCER” (priority 2008, published 2009)
# Like-named read-outs stand apart in the source and are kept apart here.
# How the values were obtained:
# [1] = system: human pancreatic carcinoma cells (HPAC); experiment: CytoTox 96 LDH release cytotoxicity assay on HPAC cells
# Protocol: (§1) The pancreatic cancer cell line, human pancreatic carcinoma cells (HPAC), was obtained from American Tissue and Cell Culture and cultured in complete media according to American Tissue and Cell Culture guidelines in T-75-cm^2 flasks in a 37° C. incubator with 5% CO2. HPAC cells were grown in Dulbecco's modified Eagle's medium with Ham F-12, 5% fetal bovine serum, 5% penicillin/streptomycin, 0.002 mg/mL insulin, 0.005 mg/mL transferrin, 40 ng/mL hydrocortisone, and 10 ng/mL epidermal growth factor.
# (§2) 1×10^4 HPAC cells were aliquoted into each well of a 96-well plate and served as target cells. They were plated in phenol red dye-free RPMI 1640 (HyClone, Logan, Utah) complete medium (1 mM L-glutamine, 100 U/mL penicillin, 100 μg/mL streptomycin, 5% heat-inactivated fetal bovine serum; Gibco-BRL, Grand Island, N.Y.) and incubated with either natural mixture or sophorolipid derivative in increasing concentrations (0, 50, 100, 150, 200 mg; 100 μL final volume) at 37° C. with 5% CO2 overnight.
# (§3) Assays were carried out using a CytoTox 96 Non-Radioactive Cytotoxicity Assay (Promega, Woodshole, Mass.), in accordance with manufacturer's directions. This assay measures lactate dehydrogenase (LDH) release by target cells, after conversion of a tetrazolium salt into a formazan red product. Cytotoxicity as measured by LDH release is considered an effective measure of determining cellular necrosis. Sophorolipid mixtures or derivatives (0, 50, 100, 150, 200 mg) were added to 96-well tissue culture plates (Fisher Scientific, Springfield, N.J.) containing HPAC cells (100 μL final volume) and incubated at 37° C., 5% CO2, for 20 h. To establish maximum lysis, lysing solution (9% v/v Triton-X 100; 10 μL) was added to representative culture wells containing HPAC cells. After incubation, supernatant (50 μL) was transferred to a fresh 96-well plate. Chromogenic substrate solution (50 μL) was added to each well while the plates were incubated in the dark at RT for 30 min, after which stop solution (1M NaAc; 50 μL) was added to each well to stop the reaction.
# (§4) Cytotoxicity as measured by LDH release was determined by spectrophotometry at 450 nm (Bio-Tek Instruments Inc., Winooski, Vt.). […] Data shown represent the mean of at least three experiments±SE and are expressed as percentage cytotoxicity. Background controls were corrected for and consisted of target cell spontaneous (HPACs in media) and target cell maximum (HPACs in media with 10 μL lysis solution). Target cell maximum was corrected for by a volume control (media with 10 μL lysis solution). Each experiment was corrected for by a sophorolipid control (sophorolipid in media). These controls were incubated on the same 96-well plate as experimental assays. Percent (%) cytotoxicity was calculated according to the general equation below:
# (§5) Values for results were expressed as means±SE obtained from multiple determinations in three or more separate experiments. P values computed were two-tailed, and P<0.05 was considered statistically significant (Student's t-test, analysis of variance with Tukey post-hoc correction; SPSS version 10.0, Chicago, Ill.).
# [2] = system: Human pancreatic carcinoma (HPAC) cells; experiment: Apoptosis (annexin) in HPAC cells; type: cell-based; conditions: 0.5-2.0 mg/ml, 24 hours
# Protocol: The sophorolipid mixtures of the present invention have anti cancer properties, which were confirmed by experiment and observations. […] Controls consisted of cells treated with media or vehicle alone and sophorolipids treatment of peripheral blood mononuclear cells (PBMC). AS mediated toxicity was inversely proportional with dose (LSD—40.3% at 0.5 mg/ml, 3.4% at 2.0 mg/ml, AS 49% at 0.5 mg/ml, 0% at 2.0 mg/ml).
# [3] = system: human pancreatic carcinoma cells (HPAC)
# Protocol: as §1, §2, §3, §4, §5
Compound,"percent cytotoxicity (LDH release) ([1]; HPAC cells cultured with 100 μg of sophorolipid natural mixture or derivative, FIG. 2)","percent cytotoxicity (LDH release) ([1]; HPAC cells, 0.5 mg/mL)","percent cytotoxicity (LDH release) ([1]; HPAC cells, 2.0 mg/mL)","dose dependence of the cytotoxic response ([1]; HPAC cells, 0.5-2.0 mg/ml, in words)",apoptosis (annexin) [2],dose dependence of the cytotoxic response [3]
"CC(=O)OC[C@H]1O[C@H]2OC(C)CCCCCC/C=C\CCCCCCCC(=O)O[C@H]3[C@H](O)[C@@H](O)[C@H](O[C@@H]2[C@@H](O)[C@@H]1O)O[C@@H]3COC(C)=O (stereo partly drawn) [LSD, lactonic sophorolipid diacetate]",26.2%,40.3%,3.4%,inversely proportional to dose,–,–
acidic sophorolipid [AS],–,–,–,–,Dose dependant apoptosis could be observed,inversely proportional to dose
